We go through eleven compounds from US7064117B2, “Anti-cancer 2,3-dihydro-1H-pyrrolo[3,2-f]quinoline complexes of cobalt and chromium” (Auckland Uniservices Limited, priority 2001, dated 2006).

In one data set the test system is AA8. Kind of data set: cytotoxicity, 4 h aerobic drug exposure, AA8. The format is cell-based, Chinese hamster. The note with it: read-out: IC50 AA8.
The subject of another data set is UV4 cell line. Kind of data set: cytotoxicity, 4 h aerobic drug exposure, UV4. Format: cell-based, Chinese hamster. To be noted: read-out: IC50 UV4.
Another data set concerns EMT6. Kind of data set: cytotoxicity, 4 h aerobic drug exposure, EMT6. To be noted: read-out: IC50 EMT6. Format: cell-based, murine.
The subject of data set [1] is SKOV3. The data set can be described thus: cytotoxicity, 4 h aerobic drug exposure, SKOV3. Format: cell-based, human. The note with it: read-out: IC50 SKOV3.
Another data set has as its system A549 wt/s. The data set can be described thus: cytotoxicity under oxic and anoxic conditions, A549 wt/s. The format is cell-based, human. The note with it: for IC50: Homo sapiens, A549, 4 h exposure. How it is done:
(§1) The metal complexes also show an ability to be activated by endogenous enzymes under hypoxia, as shown for metal complex M1 in Table 4 and FIG. 2. […] Thus the metal complexes have utility as hypoxia- as well as radiation-activated cytotoxins.
(§2) In Table 4, A549wt/s is a wild-type human […] carcinoma cell line, SKOV3 is a human ovarian cancer cell line and WiDr-2 is a clonal cell line derived from the WiDr human colon carcinoma line. IC50s (in μM are determined under both oxic and hypoxic conditions, and the hypoxic cytotoxicity ratio (HCR) is the average intra-experiment ratio of the IC50s measured under oxic and hypoxic conditions.

Data set [2] deals with SKOV3. The data set can be described thus: cytotoxicity under oxic and anoxic conditions, SKOV3. The format is cell-based, human. To be noted: for IC50: Homo sapiens, SK-OV-3, 4 h exposure. Here is the method:
as §1, §2

The test system of the next data set is HT29 cultures. Kind of data set: activation by endogenous enzymes under hypoxia (Table 4 and FIG. 2). The format is cell-based. To be noted: summary of Table 4 and FIG. 2.
Excerpt: as §1

Data set [3] has as its system panel of mammalian cell lines. Kind of data set: cytotoxicity in a panel of mammalian cell lines (summary in words). The note with it: summary of Table 2.
Where [4] appears, read: Cricetulus griseus, CHO-AA8, 4 h.
The mark [5] stands for this setting: average intra-experiment ratio of IC50s oxic/hypoxic.
[6] abbreviates: 4 h aerobic exposure, mean ± sem.

Molecules are shown by their SMILES. Where two headings read alike, the source gives them in different places.

As a reminder, the melting point is the temperature, or range, at which the solid turns liquid. `CN(C)CCOC1(O)C=CC2=NC(C(=O)N3CC(CCl)c4c3ccc3ncccc43)=CC2=C1` (centres unmarked) yielded a melting point of 176 to 179 °C.

For the compound `COc1ccc2[nH]c(C(=O)N3CC(CCl)c4c3cc(O)c3ncccc43)cc2c1` (centres unmarked), the melting point is 186 to 189 °C.

In turn, `COc1ccc(/C=C/C(=O)N2CC(CCl)c3c2cc(O)c2ncccc32)cc1` (centres unmarked) had a melting point of 208 to 211 °C.

For the compound `COc1ccc(/C=C/C(=O)N2CC(CCl)c3c2cc(O)c2ncccc32)cc1O` (centres unmarked), the melting point was 215 to 218 °C.

`Cl.Cl.Cl.Cl.O=S(=O)(O)CCCN1CCNCCN(CCCS(=O)(=O)O)CCNCC1`: the melting point fell in the range of 279 to 281 °C.

In turn, `Cl.Cl.Cl.Cl.O=S(=O)(O)CCCCN1CCNCCNCCNCC1` came in with a melting point of 301 to 303 °C.

`Oc1cccc2cccnc12` [Compound 8-HQ, 8-hydroxyquinoline, reference compound]: the IC50 with AA8 (setting [4]) worked out at 2.07 ± 0.02 µM; in the data set with UV4 cell line (Cricetulus griseus, UV4, 4 h), 2.16 ± 0.12 µM; in the data set on EMT6 (Mus musculus, EMT6, 4 h) it was 3.92 ± 1.04 µM; in the data set on SKOV3 [1] (Homo sapiens, SK-OV-3, 4 h), 4.07 ± 0.89 µM.

As for `COc1cc2cc(C(=O)N3CC(CCl)c4c3cc(O)c3ncccc43)[nH]c2c(OC)c1OC` (centres unmarked) [Compound 18a, 1-(Chloromethyl)-5-hydroxy-3-[(5,6,7-trimethoxyindol-2-yl)carbonyl]-2,3-dihydro-1H-pyrrolo[3,2-f]quinoline], the IC50 was 0.00014 ± 2.2e-05 µM with AA8 (setting [4]); 7e-05 ± 1.5e-05 µM in the data set on UV4 cell line (Cricetulus griseus, UV4, 4 h); 5.1e-05 ± 8e-06 µM with EMT6 (Mus musculus, EMT6, 4 h); 0.00025 ± 3.7e-05 µM in the data set with SKOV3 [1] (Homo sapiens, SK-OV-3, 4 h); 0.05 ± 0.014 nM in the data set on A549 wt/s (anoxic, read-out: IC50 A549 wt/s anoxic); 0.05 ± 0.016 nM in the data set with A549 wt/s (oxic, read-out: IC50 A549 wt/s oxic). Also, the IC50 was found to be 0.00035 ± 9.3e-05 µM with SKOV3 [2] (anoxic, read-out: IC50 SKOV3 anoxic) and 0.00025 ± 3.7e-05 µM in the data set with SKOV3 [2] (oxic, read-out: IC50 SKOV3 oxic). In addition, in the data set on A549 wt/s (setting [5]), the “HCR A549 wt/s (hypoxic cytotoxicity ratio)” value is reported as 0.79 ± 0.35(2). In the data set on SKOV3 [2] (setting [5]), the “HCR SKOV3 (hypoxic cytotoxicity ratio)” value is given as 0.61(1). Further, the “activation by endogenous enzymes under hypoxia, in words” value with HT29 cultures is “not activated by endogenous enzymes under hypoxic conditions”. Further, in data set [3], the cytotoxicity in words result is reported as “exceptionally cytotoxic”.

The compound `COc1cc2cc(C(=O)N3CC(CCl)c4c3cc(N)c3ncccc43)[nH]c2c(OC)c1OC` (centres unmarked) [Compound 27, 5-Amino-1-(chloromethyl)-3-[(5,6,7-trimethoxyindol-2-yl)carbonyl]-2,3-dihydro-1H-pyrrolo[3,2-f]quinoline] displayed a melting point of 258 to 263 °C. For the same compound, the IC50 in the data set on AA8 (Cricetulus griseus, CHO-AA8, 4 h aerobic exposure, mean ± sem) stood at 0.0079 ± 0.002 µM. For the same compound, in the data set on UV4 cell line (Cricetulus griseus, UV4, 4 h aerobic exposure, mean ± sem), the IC50 worked out at 0.0029 ± 0.006 µM. Further, the IC50 in the data set on EMT6 (Mus musculus, EMT6, 4 h aerobic exposure, mean ± sem) amounted to 0.0026 ± 0.0005 µM. For the same compound, the IC50 with SKOV3 [1] (Homo sapiens, SK-OV-3, 4 h aerobic exposure, mean ± sem) turned out to be 0.012 ± 0.0023 µM. The cytotoxicity in words result in data set [3] is reported as “exceptionally cytotoxic”.

For `COc1cc2cc(C(=O)N3CC(CCl)c4c3cc(NCCN)c3ccccc43)[nH]c2c(OC)c1OC.Cl.Cl` (centres unmarked) [Compound 29, 5-(2-aminoethylamino)-3-[(5,6,7-trimethoxyindol-2-yl)carbonyl]-1-(chloromethyl)-1,2-dihydro-3H-benz[e]indole dihydrochloride], the melting point was greater than 200 °C. The IC50 with AA8 (setting [4]) stood at 0.0058 ± 0.0007 µM. Also, the IC50 with UV4 cell line (Cricetulus griseus, UV4, 4 h) amounted to 0.0041 ± 0.0003 µM. For the same compound, the IC50 in the data set with EMT6 (Mus musculus, EMT6, 4 h) was determined as 0.0028 µM. Moreover, in the data set with SKOV3 [1] (Homo sapiens, SK-OV-3, 4 h), the IC50 turned out to be 0.0062 µM. In data set [3], the cytotoxicity in words entry is “exceptionally cytotoxic”.

With `C1CNCCNCCNCCN1` [Cyclen, reference compound], the IC50 with AA8 (setting [6]) was 13300 ± 2670 µM; with UV4 cell line (setting [6]), 13800 ± 2180 µM; with EMT6 (setting [6]) it was 9710 ± 2710 µM; in the data set on SKOV3 [1] (setting [6]), 11500 ± 4410 µM.
